Activity change, negative = cytotoxicity and AC35 data for 64 compounds are collected here from PubChem BioAssay AID624365 (Broad Institute, 2012).

“And” between values parts separate entries of the source, which are not always exact repeats. Identical values can stand only once. Inconclusive results are not listed. The source made the active and inactive calls.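 Rule for the calls: active = fitted curve drops past -35% activity change at a concentration up to twice the top valid dose tested; inconclusive = no clear call, values can overlap the other calls; inactive = activity opposite to the expected decrease, or the rest.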

Experiment [1] is described as follows: cytotoxicity in HepG2 hepatoma cells – cell-based, CellTiter-Glo luminescence, dry powder, cytotoxicity control for LMP1 inhibitor project, dose response (AID 624365). The settings on record: HepG2 viability, CellTiter-Glo luminescence, 48 h. In general terms: ATP-based viability assays read luminescence as a measure of living cells.
The subject of experiment [2] is HepG2 viability, CellTiter-Glo luminescence, 48 h. The experiment is described as above.

`COc1ccc(C(=O)Nc2ccc3[nH]ccc3c2)cc1`: the activity change, negative = cytotoxicity in experiment [1] (at 19.5 µM (top of the series)) was 1.7% (inactive).
In the case of `CCc1sc(C(=O)Nc2ncccc2O)cc1C`, in experiment [1] (at 19.5 µM (top of the series)), the activity change, negative = cytotoxicity was -0.832% (inactive).
On to `C[C@@H]1CCCCO[C@H](CN(C)S(=O)(=O)c2ccccc2)[C@@H](C)CN([C@@H](C)CO)C(=O)c2cc(N(C)C)ccc2O1`, for which, in experiment [1] (at 19.5 µM (top of the series)), the activity change, negative = cytotoxicity is -0.756% (inactive).
Take `c1ccc(-c2cn3c4c(sc3n2)CCCC4)cc1`: in experiment [1] (at 19.5 µM (top of the series)), the activity change, negative = cytotoxicity was -13.4% (inactive).
The same measure, in the same setting: then `Oc1cccc(C(Nc2nccs2)c2ccc3cccnc3c2O)c1` (centres undefined), with 3.87% (inactive).
On to `C[C@@H]1CCCCO[C@H](CN(C)C(=O)NC2CCCCC2)[C@H](C)CN([C@@H](C)CO)C(=O)c2cc(NC(=O)C3CCCCC3)ccc2O1`, for which the activity change, negative = cytotoxicity in experiment [1] (at 19.5 µM (top of the series)) was 11% (inactive).
As to `CC(C)=CCN(C(=O)C#Cc1ccccc1)[C@H](CO)c1ccccc1`, in experiment [2], the AC35 was 20.3 µM.
Take `C[C@H](CO)N1C[C@H](C)[C@@H](CN(C)CC2CC2)OCCCC[C@H](C)Oc2ccc(NC(=O)Nc3cccc4ccccc34)cc2C1=O`: in experiment [2], the AC35 was 79.9 µM.
Take `CCc1ccc(/C=C2\SC(=S)N(CCCC(=O)Nc3ccccn3)C2=O)cc1`: in experiment [1] (at 19.5 µM (top of the series)), the activity change, negative = cytotoxicity was -1.2% (inactive).
Turning to `CSC(=S)N/N=C(\C)c1cccc(C)n1`, the activity change, negative = cytotoxicity in experiment [1] (at 19.5 µM (top of the series)) is 1.36% (inactive).
With `CCn1c2ccccc2c2cc(/C=N/n3cnnc3)ccc21`, the AC35 in experiment [2] is 22.1 µM.
With `C[C@@H]1CCCCO[C@H](CN(C)CC2CCCCC2)[C@H](C)CN([C@@H](C)CO)C(=O)c2cc(NC(=O)NC3CCCCC3)ccc2O1`, the activity change, negative = cytotoxicity in experiment [1] (at 19.5 µM (top of the series)) is -0.214% (inactive).
Same read-out and setting: then `C[C@@H]1CCCCO[C@@H](CN(C)Cc2ccccc2)[C@H](C)CN([C@H](C)CO)C(=O)c2cc(NC(=O)Nc3ccc4c(c3)OCO4)ccc2O1`, with -6.99% (inactive).
For `COc1cccc(/C=N/Nc2ncnc3c2ncn3Cc2ccccc2)c1O`, the AC35 in experiment [2] is 26.4 µM.
On the same count and under the same terms, then `COc1ccc2[nH]c(C(=O)N/N=C/c3ccc(O)cc3O)cc2c1`, with 46.4 µM.
Take `C=CCN1Cc2ccccc2[C@@H]2OC(c3ccc(OCCCO)cc3)=N[C@]2(CCC(=O)OC(C)(C)C)C1=O`: the activity change, negative = cytotoxicity in experiment [1] (at 19.5 µM (top of the series)) is 4.76% (inactive).
`O=C(CSc1nnc2c3ccccc3n(Cc3ccccc3)c2n1)NCc1ccco1`: the AC35 in experiment [2] is 19.5 µM.
The same measure, in the same setting: then `O=c1[nH]c(=O)n([C@H]2C[C@H](O)[C@@H](CO)O2)cc1C(F)(F)F`, with 14.3 µM.
Consider `COc1ccc(-c2cc3nc4n(c(=O)c3s2)CCC4)cc1`, for which the activity change, negative = cytotoxicity in experiment [1] (at 19.5 µM (top of the series)) is -14.3% (inactive).
For the compound `CNC[C@@H]1Oc2ccc(NS(=O)(=O)c3cn(C)cn3)cc2CC(=O)N([C@H](C)CO)C[C@@H]1C`, the activity change, negative = cytotoxicity in experiment [1] (at 21 µM (top of the series)) is -1.51% (inactive).
In the case of `CCN1CCN(C(c2cccnc2)c2cc(Cl)c3cccnc3c2O)CC1` (centres undefined), in experiment [1] (at 19.5 µM (top of the series)), the activity change, negative = cytotoxicity is -19.9% (inactive).
On the same count and under the same terms, then `Cc1ccc(NC(=O)C2CCN(S(=O)(=O)c3ccc4c(c3)NC(=O)C(C)S4)CC2)cc1Cl` (centres undefined), with -15.1% (inactive); and `C[C@@H]1CCCCO[C@H](CN(C)C(=O)c2ccccc2)[C@H](C)CN([C@@H](C)CO)C(=O)c2cc(NC(=O)Nc3ccc(F)cc3)ccc2O1`, with -6.27% (inactive).
Take `CCCSc1nnc2c3ccccc3n(Cc3ccccc3)c2n1`: in experiment [1] (at 19.5 µM (top of the series)), the activity change, negative = cytotoxicity was -1.67% (inactive).
Take `COc1ccc2nc(Nc3nc(C)c(CCC(C)C)c(=O)[nH]3)nc(C)c2c1`: in experiment [2], the AC35 was 3.44 µM.
`C[C@@H]1CCCCO[C@H](CN(C)C(=O)CCC(F)(F)F)[C@H](C)CN([C@@H](C)CO)C(=O)c2cc(NC(=O)CCC(F)(F)F)ccc2O1`: the activity change, negative = cytotoxicity in experiment [1] (at 19.5 µM (top of the series)) was 6.76% (inactive).
As to `C[C@@H]1CN([C@@H](C)CO)C(=O)c2cc(NC(=O)Nc3ccc(C(F)(F)F)cc3)ccc2O[C@@H](C)CCCCO[C@H]1CN(C)Cc1ccc(C(F)(F)F)cc1`, the activity change, negative = cytotoxicity in experiment [1] (at 19.5 µM (top of the series)) was -1.82% (inactive).
On to `CC12CCC3C(CC=C4CC(O)CCC43CO)C1CCC2OC(=O)c1ccccc1` (centres undefined), for which, in experiment [1] (at 19.5 µM (top of the series)), the activity change, negative = cytotoxicity is 0.538% (inactive).
`C[C@H](CO)N1C[C@H](C)[C@H](CN(C)C(=O)Nc2ccc(C(F)(F)F)cc2)OCCCC[C@H](C)Oc2ccc(NC(=O)Nc3ccc(F)cc3)cc2C1=O`: the AC35 in experiment [2] was 55.6 µM.
`Fc1ccc2c(c1)c1nnc(SCCN3CCOCC3)nc1n2Cc1ccccc1`: the AC35 in experiment [2] is 33.7 µM.
On the same count and under the same terms, then `C[C@@H]1CN([C@@H](C)CO)C(=O)c2cc(NC(=O)Nc3ccc(C(F)(F)F)cc3)ccc2O[C@@H](C)CCCCO[C@@H]1CN(C)CC1CCCCC1`, with 40.7 µM.
As for `C=C1C[C@]23C[C@@]1(O)CC[C@@H]2c1cccc(C)c1[C@@H]3C(=O)O`, the activity change, negative = cytotoxicity in experiment [1] (at 19.5 µM (top of the series)) is -23.5% (inactive).
Same read-out and setting: then `O=C(Nc1cc(C(F)(F)F)cc(C(F)(F)F)c1)Nc1cnn(-c2ccc([N+](=O)[O-])cc2)c1C(F)(F)F`, with 11.8% (inactive); and `O=c1[nH]c(Nc2nc3ccccc3o2)nc2c1CCCC2`, with -6.44% (inactive).
Still for that read-out and setting: then `CC1=C(C(=O)OCc2ccc3c(c2)OCO3)C(c2ccc(F)cc2)NC(=O)N1` (centres undefined), with 2.83% (inactive); and `O=C(CCc1ccccc1)NC(c1cccs1)c1cc(Cl)c2cccnc2c1O` (centres undefined), with 1.94% (inactive).
For `C[C@@H]1CN([C@@H](C)CO)C(=O)c2cc(NC(=O)Nc3ccc4c(c3)OCO4)ccc2O[C@H]1CN(C)CC1CCCCC1`, the AC35 in experiment [2] is 28.9 µM.
In the case of `C[C@H]1CCCCO[C@@H](CN(C)CC2CCCCC2)[C@@H](C)CN([C@@H](C)CO)C(=O)c2cc(NC(=O)C3CCCCC3)ccc2O1`, in experiment [2], the AC35 was 21.4 µM.
As to `CCc1ccc(/C=C/C(=O)C2C(=O)c3ccccc3C2=O)cc1`, the activity change, negative = cytotoxicity in experiment [1] (at 19.5 µM (top of the series)) is -7.16% (inactive).
Turning to `CC1CN(C(=O)CSc2nnc3c4ccccc4n(Cc4cccc(Cl)c4)c3n2)CCN1C(=O)c1ccccc1F` (centres undefined), the activity change, negative = cytotoxicity in experiment [1] (at 19.5 µM (top of the series)) is -2.74% (inactive).
For the compound `C/C(=N\NC(=S)N1CCN(c2ccccn2)CC1)c1ccccn1`, in experiment [1] (at 10 µM (top of the series)), the activity change, negative = cytotoxicity is -18.8% (inactive).
On to `C[C@@H]1CN([C@@H](C)CO)C(=O)c2cccc(NC(=O)Nc3cccc4ccccc34)c2O[C@H]1CN(C)C(=O)Nc1ccc(C(F)(F)F)cc1`, for which the activity change, negative = cytotoxicity in experiment [1] (at 19.5 µM (top of the series)) was -1.58% (inactive).
As to `C/C(=N\NC(=S)Nc1ccccc1)c1ccccn1`, in experiment [1] (at 10 µM (top of the series)), the activity change, negative = cytotoxicity was -2.52% (inactive).
Consider `COc1ccc(-c2csc3ncnc(NCCN4CCOCC4)c23)cc1`, for which, in experiment [1] (at 19.5 µM (top of the series)), the activity change, negative = cytotoxicity is -1.72% (inactive).
The same measure, in the same setting: then `Cc1ccnc(NC(=O)c2ccc(C(=O)c3ccccc3)cc2)c1`, with -6.85% (inactive).
Regarding `C/C(=N\NC(=S)Nc1cccc(Cl)c1)c1ccccn1`, the AC35 in experiment [2] is 13.2 µM.
As to `COc1ccc(NC(=O)c2ccc(OC(C)C(=O)O)cc2)cc1Cl` (centres undefined), the activity change, negative = cytotoxicity in experiment [1] (at 21 µM (top of the series)) was -17.9% (inactive).
Turning to `COCCCNC(=O)C(C)Sc1nnc2c3cc(C)ccc3n(Cc3ccccc3F)c2n1` (centres undefined), the activity change, negative = cytotoxicity in experiment [1] (at 19.5 µM (top of the series)) is -14.5% (inactive).
Consider `C/C=C/C/C=C/CCC(=O)[C@H]1O[C@H]1C(N)=O`, for which the AC35 in experiment [2] is 14 µM and 60.1 µM.
As for `Cc1cc(NC(=O)c2ccc3c(c2)OCCO3)no1`, in experiment [1] (at 19.5 µM (top of the series)), the activity change, negative = cytotoxicity is 14.9% (inactive).
Regarding `C[C@H](CO)N1C[C@H](C)[C@@H](CN(C)CC2CCCCC2)OCCCC[C@H](C)Oc2ccc(NC(=O)Nc3cccc4ccccc34)cc2C1=O`, the activity change, negative = cytotoxicity in experiment [1] (at 19.5 µM (top of the series)) is -6.9% (inactive).
Regarding `O=C1/C(=C/c2ccncc2)SC(=S)N1Cc1ccccc1`, in experiment [1] (at 19.5 µM (top of the series)), the activity change, negative = cytotoxicity was -5.23% (inactive).
Same read-out and setting: then `C/C(=N\NC(=S)N1CC2CCC(CC2)C1)c1cccc(C)n1`, with -9.43% (inactive); and `Cc1ccc(S(=O)(=O)Nc2ccc3c(c2)C(=O)N([C@@H](C)CO)C[C@H](C)[C@@H](CN(C)C(=O)CCC(F)(F)F)OCCCC[C@H](C)O3)cc1`, with 1.23% (inactive).
Regarding `Cc1c(NC(=O)c2cccc(NC(=O)COc3ccccc3C#N)c2)c(=O)n(-c2ccccc2)n1C`, the activity change, negative = cytotoxicity in experiment [1] (at 19.5 µM (top of the series)) was 0.795% (inactive).
`CSc1nc(-c2ccc(C)cc2)nc(C(Cl)Cl)n1`: the AC35 in experiment [2] was 36 µM.
For `C=C1C[C@]23C[C@@]1(O)CC[C@H]2[C@@]12C=C[C@H](O)[C@@](C)(C(=O)O1)[C@H]2[C@@H]3C(=O)O`, the activity change, negative = cytotoxicity in experiment [1] (at 12 µM (top of the series)) is 9.94% (inactive).
Regarding `Cc1ccc(S(=O)(=O)NC(CC(C)C)C(=O)NCC(c2ccco2)N2CCCCC2)cc1` (centres undefined), in experiment [1] (at 19.5 µM (top of the series)), the activity change, negative = cytotoxicity is 14.4% (inactive).
`C[C@H](CO)N1C[C@H](C)[C@@H](CN(C)Cc2ccc(-c3ccccc3)cc2)Oc2ccc(NC(=O)Nc3cccc4ccccc34)cc2CC1=O`: the AC35 in experiment [2] is 37 µM.
On to `C/C(=N\NC(=S)Nc1ccc(C)cc1)c1ccccn1`, for which the AC35 in experiment [2] was 11.9 µM.
On the same count and under the same terms, then `C/C(=N\NC(=S)Nc1ccccc1Cl)c1ccccn1`, with 9.26 µM.
Still for that read-out and setting: then `Nc1ccn([C@@H]2O[C@H](CO)[C@@H](O)C2O)c(=O)n1` (some centres undefined), with 7.36 µM; and `C/C(=N\NC(=S)N1CCCCC1)c1cccc(C)n1`, with 2.55 µM.
With `CC(=O)Nc1nc(C)c(-c2csc(Nc3ccc(O)cc3)n2)s1`, in experiment [2], the AC35 was 19.6 µM.
